Reference: PMC5029806, “Streptococcus pneumoniae TIGR4 Flavodoxin: Structural and Biophysical Characterization of a Novel Drug Target” (PLoS ONE, 2016)

Target: T1, Streptococcus pneumoniae TIGR4 flavodoxin (SpFld) (Streptococcus pneumoniae, UniProt A0A0H2UQC6)
T1 construct: gene fld; apo form for ITC, SeMet holo form for the crystal structure
Test: ITC at […]°C ([…] NaCl, […] MES, pH […]); crystal structure of the FMN complex; thermal stabilization by CD, fluorescence and DSC
Assay type: binding

T1 sequence (A0A0H2UQC6 entry or part of it): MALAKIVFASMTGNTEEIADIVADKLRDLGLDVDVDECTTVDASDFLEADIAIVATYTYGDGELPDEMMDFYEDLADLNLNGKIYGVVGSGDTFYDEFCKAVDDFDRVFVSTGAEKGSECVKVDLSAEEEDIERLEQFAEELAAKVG

Cc1cc2nc3c(=O)[nH]c(=O)nc-3n(C[C@H](O)[C@H](O)[C@H](O)COP(=O)(O)O)c2cc1C [FMN]
Kd: 83 ± 9 nM
